ChEMBL document CHEMBL1123495, “Assessment of a potential dopaminergic prodrug moiety in several ring systems” (1986)
Activity calls are given as the source filed them. The calls are words filed in the database; no cut-off is given here.

How the values were obtained:
Felis catus [1] = species on record: Felis catus; experiment: Compound was tested for inhibition of chronotropic stimulation response on the cardioaccelerator nerve in cat; assay type: functional; details: read-out: ID50 (the source's name)
Rattus norvegicus [2] = species on record: Rattus norvegicus; experiment: Compound was tested for induction of contralateral turning behavior with unilateral lesions of the nigrostriatal pathway in rat by haloperidol; Significant at p< 0.05; assay type: functional, organism-based
Dopamine receptor = details: Felis catus
Felis catus [3] = experiment: Compound was tested for inhibition of chronotropic stimulation response on the cardioaccelerator nerve in cat at the concentration > 3.0 uM/kg; Inactive; assay type: functional, organism-based
Rattus norvegicus [4] = experiment: Compound was tested for induction of contralateral turning behavior with unilateral lesions of the nigrostriatal pathway in rat, activity expressed as potency ratio to apomorphine; Inactive up to 11.7 umol/kg; assay type: functional, organism-based
Rattus norvegicus [5] = experiment: Compound was tested for induction of contralateral turning behavior with unilateral lesions of the nigrostriatal pathway in rat, activity expressed as potency ratio to apomorphine; Inactive in inducing turns up to 12.1 umol/kg; assay type: functional, organism-based
Rattus norvegicus [6] = species on record: Rattus norvegicus; experiment: Compound was tested for induction of contralateral turning behavior with unilateral lesions of the nigrostriatal pathway in rat, activity expressed as potency ratio to apomorphine.; assay type: functional
Rattus norvegicus [7] = species on record: Rattus norvegicus; experiment: Compound was tested for induction of contralateral turning behavior with unilateral lesions of the nigrostriatal pathway in rat by haloperidol; NS= Not significant; assay type: functional, organism-based
Rattus norvegicus [8] = experiment: Compound was tested for induction of contralateral turning behavior with unilateral lesions of the nigrostriatal pathway in rat, activity expressed as potency ratio to apomorphine; Inactive up to 16.9 umol/kg; assay type: functional, organism-based
Rattus norvegicus [9] = experiment: Compound was tested for induction of contralateral turning behavior with unilateral lesions of the nigrostriatal pathway in rat, activity expressed as potency ratio to apomorphine; Inactive up to 13.3 umol/kg; assay type: functional, organism-based
Rattus norvegicus [10] = experiment: Compound was tested for induction of contralateral turning behavior with unilateral lesions of the nigrostriatal pathway in rat, activity expressed as potency ratio to apomorphine; Inactive up to 13.9 umol/kg; assay type: functional, organism-based
Rattus norvegicus [11] = experiment: Compound was tested for induction of contralateral turning behavior with unilateral lesions of the nigrostriatal pathway in rat, activity expressed as potency ratio to apomorphine; Inactive up to 12.3 umol/kg; assay type: functional, organism-based
Felis catus [12] = species on record: Felis catus; experiment: Compound was tested for antagonism of apomorphine induced inhibition of the tachycardia produced by stimulation of the right cardioaccelerator nerve in cat; assay type: functional
Rattus norvegicus [13] = experiment: Compound was tested for induction of contralateral turning behavior with unilateral lesions of the nigrostriatal pathway in rat, activity expressed as potency ratio to apomorphine; Inactive up to 12.19 umol/kg; assay type: functional, organism-based

SMILES	ED50 (Felis catus [1]) [µmol/kg]	AD50 (Dopamine receptor)	ID50 (Felis catus [3])	Potency ratio (Rattus norvegicus [6])	further results
CN1CCc2cccc3c2[C@H]1Cc1ccc(O)c(O)c1-3 [APOMORPHINE]	0.022				Antagonism (Rattus norvegicus [2]): Active
CCCN(CCC)C1Cc2ccc(C=O)c(O)c2C1 (centres undefined)		inactive	inactive		Potency ratio (Rattus norvegicus [4]): inactive
CCCN(CCC)C1CCc2c(ccc(C(=O)O)c2O)C1 (centres undefined)		inactive	inactive		Potency ratio (Rattus norvegicus [5]): inactive
CCCN(CCC)C1Cc2ccc(C)c(O)c2C1 (centres undefined)	0.89	inactive		0.3	Antagonism (Rattus norvegicus [2]): Active
CCCN1CCC[C@H]2c3ccc(C=O)c(O)c3CC[C@@H]21	1.81	inactive		0.38	Antagonism (Rattus norvegicus [7]): inactive
CCCN(CCC)C1CCc2c(ccc(CO)c2O)C1 (centres undefined)	0.03	inactive		0.93	
CCCN(CCC)CCc1ccc(C)c(O)c1		inactive	inactive		Potency ratio (Rattus norvegicus [8]): inactive
CCCN(CCC)CCc1ccc(C=O)c(O)c1		inactive	inactive		Antagonism (Rattus norvegicus [2]): Active; Potency ratio (Rattus norvegicus [9]): inactive
CCCN(CCC)CCc1ccc(C(=O)O)c(O)c1		inactive	inactive		Potency ratio (Rattus norvegicus [10]): inactive
CCCN1CCC[C@H]2c3ccc(C(=O)O)c(O)c3CC[C@@H]21		inactive	inactive		Potency ratio (Rattus norvegicus [11]): inactive
CCCN(CCC)C1Cc2ccc(C(=O)O)c(O)c2C1 (centres undefined)	3.18	inactive			
CCCN(CCC)C1CCc2c(ccc(C=O)c2O)C1 (centres undefined)	0.13	inactive		0.07	
CCCN(CCC)C1Cc2ccc(CO)c(O)c2C1 (centres undefined)	0.12	inactive		0.33	Antagonism (Rattus norvegicus [2]): Active
CCCN1CCC[C@H]2c3ccc(C)c(O)c3CC[C@@H]21			inactive	0.68	AD50 (Felis catus [12]): 0.44 µM/kg
CCCN1CCC[C@H]2c3ccc(CO)c(O)c3CC[C@@H]21		inactive	inactive	0.07	Antagonism (Rattus norvegicus [2]): Active
CCCN(CCC)CCc1ccc(CO)c(O)c1		inactive	inactive		Potency ratio (Rattus norvegicus [13]): inactive
CCCN(CCC)C1CCc2c(ccc(C)c2O)C1 (centres undefined)	0.06	inactive		0.39	
